In ChEMBL document CHEMBL1201862, “PubChem BioAssay data set” (2004):
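Five compound concentrations were applied to cells in 96-well plates for 48 hours; endpoints were derived by simple linear interpolation of the resulting dose-response curve. Abbreviation: GI50, concentration required for 50% inhibition of growth.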 Calls of active or inactive are those of the source. Rule as the data show it: active = GI50 up to about 1.1 µM and inactive = higher.

Assays:
Assay in all cases: DTP human tumour cell line panel, 48 h
DLD-1 = tested on: DLD-1
DMS-114 = tested on: DMS-114
DMS-273 = tested on: DMS-273
LXFL 529 = tested on: LXFL 529
M19-MEL = tested on: M19-MEL
HOP-18 = tested on: HOP-18
SNB-78 = tested on: SNB-78
XF498 = tested on: XF498
RXF 631 = tested on: RXF 631

Measured: GI50

CN1C(=O)CN2C(Cl)(Cl)C2(c2ccccc2F)c2cc([N+](=O)[O-])ccc21 (configuration not stated)
inactive: DLD-1 35.1 µM | DMS-114 42.8 µM | DMS-273 39.4 µM | LXFL 529 58.1 µM | M19-MEL 65.6 µM

CC1(O)C=CC2CCC1C2O (configuration not stated)
inactive: DLD-1 58.7 µM | DMS-114 17.7 µM | DMS-273 55.6 µM | HOP-18 > 100 µM | LXFL 529 78.9 µM | M19-MEL > 100 µM | SNB-78 > 100 µM | XF498 > 100 µM

COc1ccc(OC)c2c1CC(C(=O)O)(C(=O)O)CC2=O
inactive: DMS-114 > 100 µM | LXFL 529 > 100 µM | SNB-78 > 100 µM

C=CCC12CC(=O)CCC1CC(=O)C2 (configuration not stated)
inactive: DLD-1 > 100 µM | DMS-114 > 100 µM | DMS-273 > 100 µM | HOP-18 > 100 µM | LXFL 529 > 100 µM | M19-MEL > 100 µM | SNB-78 > 100 µM

CCOC(=O)C1=C(C)N(NC(=O)OC)C2(N)N(NC(=O)OC)C(C)=C(C(=O)OCC)C12C#N (configuration not stated)
inactive: DLD-1 > 100 µM | DMS-114 > 100 µM | DMS-273 > 100 µM | LXFL 529 > 100 µM | M19-MEL > 100 µM | XF498 > 100 µM

COc1ccc(C(=O)C(C(=O)CCC(=O)Nc2cccc(C(F)(F)F)c2)c2ccccc2)cc1 (configuration not stated)
inactive: DLD-1 > 100 µM | DMS-114 36.2 µM | DMS-273 > 100 µM | HOP-18 > 100 µM | LXFL 529 62.2 µM | M19-MEL 67.5 µM | SNB-78 > 100 µM | XF498 54.1 µM

C[C@H](NC(=O)OC1C2C=CC(O)C1CC2)c1ccccc1 (some centres not stated)
inactive: DLD-1 89.1 µM | DMS-114 60.8 µM | DMS-273 24.4 µM | HOP-18 > 100 µM | LXFL 529 > 100 µM | SNB-78 > 100 µM | XF498 > 100 µM

Cc1ccc(C2C(Cl)C(=O)N2n2cnc3ccccc3c2=O)cc1 (configuration not stated)
inactive: DLD-1 > 100 µM | DMS-114 > 100 µM | DMS-273 > 100 µM | HOP-18 18.1 µM | LXFL 529 > 100 µM | M19-MEL > 100 µM | SNB-78 > 100 µM | XF498 > 100 µM

O=NN(CCCl)C(=O)N[C@H]1CC[C@@H](CC(=O)O)CC1
inactive: DLD-1 > 100 µM | DMS-114 > 100 µM | DMS-273 > 100 µM | HOP-18 > 100 µM | M19-MEL > 100 µM | SNB-78 > 100 µM | XF498 > 100 µM

c1ccc(/N=c2\snc3scc(-c4ccccc4)n23)cc1
inactive: DLD-1 36.9 µM | DMS-114 30.3 µM | DMS-273 38.8 µM | HOP-18 24.8 µM | LXFL 529 33.5 µM | M19-MEL 32.3 µM | RXF 631 66.8 µM | SNB-78 57.3 µM | XF498 32.1 µM

COc1ccc(C2S/C(=C\c3ccc(O)cc3)C(=O)N2NC(=O)Cc2ccccc2)cc1 (configuration not stated)
inactive: DLD-1 > 100 µM | DMS-114 > 100 µM | DMS-273 > 100 µM | HOP-18 > 100 µM | LXFL 529 > 100 µM | M19-MEL > 100 µM

CCNC1=Nc2ccccc2-n2c(nn3nc4ccccc4c23)N1CC
inactive: DLD-1 > 100 µM | DMS-114 89.3 µM | DMS-273 > 100 µM | HOP-18 > 100 µM | LXFL 529 > 100 µM | M19-MEL > 100 µM

O=C(/C=C/C1C(=O)NC(=O)NC1=O)CC(=O)C(=O)Nc1cc(Cl)c(Cl)cc1Cl
inactive: DLD-1 > 100 µM | DMS-114 > 100 µM | DMS-273 > 100 µM | HOP-18 > 100 µM | LXFL 529 > 100 µM | M19-MEL > 100 µM | SNB-78 > 100 µM | XF498 > 100 µM

CC1OC(OCC2OC(Oc3c(-c4ccc(O)cc4)oc4cc(O)cc(O)c4c3=O)C(OC3OC(C)C(O)C(O)C3O)C(O)C2O)C(O)C(O)C1O (configuration not stated)
inactive: DLD-1 > 100 µM | DMS-114 > 53.7 µM | DMS-273 > 84.1 µM | HOP-18 > 100 µM | LXFL 529 > 100 µM | M19-MEL > 72.4 µM | RXF 631 > 100 µM | SNB-78 > 100 µM | XF498 > 100 µM

O=C(O)CNS(=O)(=O)c1ccc(NC(=O)c2ccc([N+](=O)[O-])cc2)cc1
inactive: DLD-1 > 100 µM | DMS-273 > 100 µM | HOP-18 > 100 µM | LXFL 529 > 100 µM | M19-MEL > 100 µM | RXF 631 > 100 µM | XF498 > 100 µM

C[C@@H]1CC2(C[C@@H](C)C3[C@@H](CC4(C)CCCC5C6=CC(O)(CC[C@]34C)OC6=CC(=O)OC5(C)C)O2)OC1=O (some centres not stated)
inactive: DLD-1 > 100 µM | DMS-114 > 100 µM | DMS-273 > 100 µM | HOP-18 > 100 µM | LXFL 529 > 100 µM | XF498 > 100 µM

OCC1O[C@H](O[C@@H]2CCCN3CC(O)C(O)[C@@H]23)C(O)C(O)C1O (some centres not stated)
inactive: DLD-1 > 100 µM | DMS-273 > 100 µM | HOP-18 > 100 µM | LXFL 529 > 100 µM | M19-MEL > 100 µM | RXF 631 > 100 µM | SNB-78 > 100 µM

COc1cc(C2c3cc4c(cc3[C@@H](Nc3ccc(C(=O)O)cc3)C3COC(=O)[C@H]23)OCO4)cc(OC)c1O (some centres not stated)
inactive: DMS-273 7.16 µM | LXFL 529 11 µM | M19-MEL 15.7 µM | SNB-78 10.7 µM

CCC(=O)O[C@@H]1C2C(OC(C)=O)C34COC(C)([C@@H]3C3C(C[C@]3(C)OC(C)=O)[C@@H](OC(=O)c3ccccc3)C4=O)[C@H](OC(C)=O)[C@@]2(OC(C)=O)C[C@@H]1C (some centres not stated)
inactive: DLD-1 > 100 µM | DMS-114 23.3 µM | DMS-273 44.1 µM | HOP-18 > 100 µM | LXFL 529 34.9 µM | M19-MEL 32.8 µM | RXF 631 86.1 µM | SNB-78 5.5 µM

COC[C@@H]1Cc2cc(OC)c3c(c2[C@H](c2ccc(OC)c(OC)c2)[C@H]1COC)OCO3 [HYPOPHYLLANTHIN]
inactive: DLD-1 47.3 µM | DMS-114 > 100 µM | DMS-273 > 100 µM | HOP-18 > 100 µM | LXFL 529 > 100 µM | M19-MEL > 100 µM | RXF 631 > 100 µM | XF498 19.1 µM
